These results are taken from patent US11406687B2, “Activators of CXCR3 for the treatment of angiopathies of the eye” (University of Pittsburgh—Of the Commonwealth System of …, priority 2011, dated 2022).

Experiment [1] deals with rabbits with experimental glaucoma. Kind of experiment: Restenosis following glaucoma treatment in rabbits with experimental glaucoma (Example 1). In kind it is in vivo, rabbit. To be noted: rabbits treated for glaucoma by drilling an anastomy; peptides injected into the aqueous humor. On the procedure: To test the effect of the 21 amino acid IP-10 peptide (SEQ ID NO: 2) on restenosis following glaucoma treatment, an experiment is conducted in rabbits with experimental glaucoma.
Rabbits are treated with IP-10 peptide (SEQ ID NO: 2), PF4, or a scrambled control peptide. Rabbits are treated for glaucoma by drilling an anastomy. The peptides are then injected into the aqueous humor.
Changes in pressure are evaluated before and after treatment with the peptides.

In experiment [2] the test system is rabbits with experimental WMD. As to the kind of experiment: Wet macular degeneration in rabbits with experimental WMD (Example 2). The format is in vivo, rabbit. To be noted: injection into the vitreous humor, repeated as necessary. On the procedure: To test the effect of the 21 amino acid IP-10 peptide (SEQ ID NO: 2) on wet macular degeneration (WMD), an experiment is conducted in rabbits with experimental WMD.
Rabbits are treated with IP-10 peptide (SEQ ID NO: 2), PF4, or a scrambled control peptide by injection into the vitreous humor. Rabbits are evaluated visually over time to evaluate the effect of each peptide. Injections are repeated as necessary.

As to “IP-10 peptide: 21 amino acid fragment of human IP-10, ESKAIKNLLKAVSKERSKRSP (listed as Homo sapiens)”, the “Changes in pressure before and after treatment with the peptides” value in experiment [1] was “prevent an increase in pressure”. Further, the “Effect on WMD, evaluated visually over time” value in experiment [2] is “inhibit the development of WMD and/or lead to a reversion of WMD”.

B1: PF4: 70-amino acid CXC chemokine released from alpha-granules of activated platelets; human PF4 sequence SEQ ID NO: 3 (protein, listed as Homo sapiens)
chain: EAEEDGDLQCLCVKTTSQVRPRHITSLEVIKAGPHCPTAQLIATLKNGRKICLDLQAPLYKKIIKKLLES
With B1, the “Changes in pressure before and after treatment with the peptides” value in experiment [1] is “prevent an increase in pressure”. Also, the “Effect on WMD, evaluated visually over time” value in experiment [2] was “inhibit the development of WMD and/or lead to a reversion of WMD”.
